Converted amounts (≈) assume the structure as drawn.
Assays:
[1] = system: Mycobacterium tuberculosis; assay: MMV: Screen against Mtb, single point, replicating, at 25uM; type: functional
[2] = system: Mycobacterium tuberculosis; assay: MMV: CRC and MIC90 against Mtb (non replicating); type: functional
[3] = system: Mycobacterium tuberculosis; assay: MMV: Screen against Mtb, single point, non replicating, at 25uM; type: functional
[4] = MMV: Cytotoxicity CRC and LD50 against HepG2; type: toxicity, cell-based; details: human, HepG2 cells; read-out: LD50 (the source's name)
[5] = system: Mycobacterium tuberculosis; assay: MMV: CRC and MIC90 against Mtb (replicating); type: functional

Row | SMILES | inhibition at 25 µM [1] [%] | MIC90 [2] [µM] | inhibition at 25 µM [3] [%] | CC50 [4] [µM] | MIC90 [5] [µM]
1 | CN1CCN(c2ccc(Nc3c4ccccc4nc4ccccc34)cc2)CC1 | 63.8 | 27.7 (≈ 10.2 µg/mL) | 44.1 | 0.654 | 45.1 (≈ 16.6 µg/mL)
2 | COc1ccc(C2c3ccc4ccccc4c3Oc3ncn(CCCN(C)C)c(=N)c32)cc1 (stereo not given) | 98.1 | > 100 | 47.1 | 1.53 | 16.9 (≈ 7.45 µg/mL)
3 | N=c1n(CCN2CCCCC2)c2ccccc2n1CC(=O)c1ccc(Cl)c(Cl)c1 | 96.3 | > 100 | 17.6 | 6.5 | 21.1 (≈ 9.1 µg/mL)
4 | C[n+]1c2ccccc2nc2ccc(NCCO)cc21 | 84.9 | > 100 | 37.7 | 6.65 | 6
5 | CCn1nc(-c2ccc(C(=O)OC)cc2)nc2c(=O)n(C)c(=O)nc1-2 | 55.9 | 33.6 (≈ 11.5 µg/mL) | 65.1 | 1.36 | > 100
6 | Cc1cc(N2CCCC2)nc(Nc2ccc(NC(=O)CCc3ccccc3)cc2)n1 | 82.1 | > 100 | 9.94 | 2.64 | 14 (≈ 5.62 µg/mL)
7 | CC(C)(C)CC(C)(C)NCC(O)COc1ccc(Cl)cc1Cl (stereo not given) | 98.5 | 40.2 (≈ 14 µg/mL) | 30.2 | 3.51 | 4.47 (≈ 1.56 µg/mL)
8 | COc1cccc(Nc2nc(NCCO)c3ccccc3n2)c1 | 81.8 | > 100 | 14.8 | 26 | 27.3 (≈ 8.47 µg/mL)
9 | COCCNCC(O)Cn1c2ccc(Cl)cc2c2cc(Cl)ccc21 (stereo not given) | 99.4 | 56.1 (≈ 20.6 µg/mL) | 26.7 | 3.92 | 11.6 (≈ 4.26 µg/mL)
10 | FC(F)(F)c1cccc(Nc2nc3ccccc3nc2Nc2cccc(C(F)(F)F)c2)c1 | 97.6 | 5.75 (≈ 2.58 µg/mL) | 102 | 1.59 | 3.33 (≈ 1.49 µg/mL)
11 | O=C(NC1CCN(Cc2ccccc2)CC1)c1cc(-c2ccncc2)nc2ccc(Cl)cc12 | 66 | > 100 | 20.6 | 7.1 | 32.5 (≈ 14.9 µg/mL)
12 | CC(=O)c1ccc(NC(=O)CSc2nc(-c3ccccc3Cl)ns2)cc1 | 96.2 | > 100 | 13.4 | 41 | 14 (≈ 5.65 µg/mL)
13 | Brc1ccc(Nc2nc3ccccc3nc2Nc2ccc(Br)cc2)cc1 | 101 | 11.5 (≈ 5.41 µg/mL) | 100 | 2.69 | 3.73 (≈ 1.75 µg/mL)
14 | OC(CNC1CCCCC1)Cn1c2ccccc2c2ccccc21 (stereo not given) | 66.6 | > 100 | 14 | 4.97 | 55.9 (≈ 18 µg/mL)
15 | Cc1ccc(Cl)cc1N1CCN(CCCNC(=O)C2CCN(c3nc4ccccc4[nH]3)CC2)CC1 | 75.7 | > 100 | 26.9 | 4.79 | 39 (≈ 19.3 µg/mL)
16 | Nc1ccc(-c2nc3cc(Cc4ccc5[nH]c(-c6ccc(N)cc6)nc5c4)ccc3[nH]2)cc1 | 94 | > 100 | 41.4 | 2.45 | 10.9 (≈ 4.69 µg/mL)
17 | CCCCOC(=O)c1ccc(Nc2cc(C)nc3ccc(OC)cc23)cc1 | 96.5 | > 100 | 24.7 | 6.93 | 94.9 (≈ 34.6 µg/mL)
18 | Cc1cc(Nc2ccc(OCc3ccccc3)cc2)nc2cc(O)ccc12 | 99.8 | 50 (≈ 17.8 µg/mL) | 10 | 8.16 | 19.9 (≈ 7.09 µg/mL)
19 | CCOc1ccc2nc(C)cc(Nc3ccc(N(C)C)cc3)c2c1 | 78 | 67.4 (≈ 21.7 µg/mL) | 15.7 | 7.38 | 38.3 (≈ 12.3 µg/mL)
20 | COc1ccc(Nc2cc(C)nc(NCc3ccccc3)n2)cc1 | 95.5 | > 100 | 22.6 | 6.9 | 18 (≈ 5.77 µg/mL)
21 | Cc1cc(Nc2cccc(F)c2)nc(NCc2ccccc2)n1 | 98.3 | > 100 | 5.92 | 7.18 | 16.4 (≈ 5.06 µg/mL)
22 | COc1ccc(C2NCCc3c2[nH]c2ccccc32)cc1CN1CCN(c2ccc(F)cc2)CC1 (stereo not given) | 87.9 | > 100 | 15.9 | 2.28 | 25.9 (≈ 12.2 µg/mL)
23 | O=C1c2ccc3c4c(ccc(c24)C(=O)N1CCCCO)C(=O)N(CCCCO)C3=O | 89.3 | 79.1 (≈ 32.5 µg/mL) | 39.6 | 0.904 | 36.5 (≈ 15 µg/mL)
24 | OCCNc1nc(Nc2ccc(Cl)c(Cl)c2)nc2ccccc12 | 94 | 20.2 (≈ 7.05 µg/mL) | 84.5 | 7.18 | 3.59 (≈ 1.25 µg/mL)
25 | Nc1ccc(-c2nc3cc(Oc4ccc(Oc5ccc6[nH]c(-c7ccc(N)cc7)nc6c5)cc4)ccc3[nH]2)cc1 | 98.8 | > 100 | 11.8 | 5.37 | 19.2 (≈ 10.1 µg/mL)

Row | SMILES | inhibition at 25 µM [1] [%] | MIC90 [2] [µM] | inhibition at 25 µM [3] [%] | CC50 [4] [µM] | MIC90 [5] [µM]
26 | CCOC(=O)c1cnc2ccc(OC)cc2c1Nc1ccc(N2CCN(C)CC2)cc1 | 78.8 | > 100 | 31.3 | 22.8 | 35.9 (≈ 15.1 µg/mL)
27 | Cc1cc(N(C)C)nc(Nc2ccc(NC(=O)Nc3ccccc3)cc2)n1 | 98.1 | > 100 | 3.62 | 11.2 | 19.3 (≈ 7 µg/mL)
28 | Clc1cc(Br)ccc1-c1ccc(CNCC2CCNCC2)o1 | 86.5 | > 100 | 34.2 | 1.78 | 29.3 (≈ 11.2 µg/mL)
29 | Cc1ccc2cc3c(N)c4c(C)ccc(C)c4nc3nc2c1 | 101 | > 100 | 7.35 | 2.84 | 6.06 (≈ 1.74 µg/mL)
30 | CC(C)CCNCC(O)Cn1c2ccccc2c2ccccc21 (stereo not given) | 83.6 | > 100 | 16.6 | 4.74 | 22.9 (≈ 7.11 µg/mL)
31 | Cc1ccc(Nc2nc(N)c3ccccc3n2)cc1Cl | 96.6 | > 100 | 7.17 | 10.9 | 24.7 (≈ 7.03 µg/mL)
32 | Cc1cc(C)c2nc(N3CCC(C(=O)NCCCN4CCC(N5CCCCC5)CC4)CC3)sc2c1 | 60.2 | > 100 | 15.2 | 2.55 | 60.8 (≈ 30.3 µg/mL)
33 | CC1CCN(Cc2ccc(NC(=O)c3cc4ccc5cccnc5c4[nH]3)cc2)CC1 | 75.1 | > 100 | 13.8 | 4.42 | 33.3 (≈ 13.3 µg/mL)
34 | O=C(Nc1cccc(C(F)(F)F)c1)c1cc(Cl)ccc1O | 95.9 | 3.46 (≈ 1.09 µg/mL) | 102 | 0.99 | 3.87 (≈ 1.22 µg/mL)
35 | CC(C)(C)CC(C)(C)NCC(O)COc1ccc2c(c1)CCC2 (stereo not given) | 70.7 | > 100 | -3.5 | 8.32 | 35.6 (≈ 11.4 µg/mL)
36 | CCCCCCn1c(=N)n(CC(O)COc2cccc(C)c2)c2ccccc21 (stereo not given) | 98.5 | 27.9 (≈ 10.6 µg/mL) | 31.3 | 3.27 | 9.69 (≈ 3.7 µg/mL)
37 | Cc1ccc(NC(=O)Nc2cccc(Cl)c2)cc1F | 80.7 | > 100 | 19.7 | 11.1 | 28.8 (≈ 8.03 µg/mL)
38 | O=C(Nc1ccc(F)c(Cl)c1)Nc1ccc(Cl)c(Cl)c1 | 97.5 | 11 (≈ 3.67 µg/mL) | 100 | 4.33 | 4.03 (≈ 1.34 µg/mL)
39 | COc1ccc(-c2cc(=O)oc3c4c(ccc23)OCN(Cc2ccc(F)cc2)C4)cc1 | 90.5 | > 100 | 22.3 | 40.5 | 37.5 (≈ 15.7 µg/mL)
40 | CSc1ccccc1C(=O)Nc1nc(-c2ccccn2)cs1 | 68.2 | 79 (≈ 25.9 µg/mL) | 66.8 | 12.1 | 51.2 (≈ 16.8 µg/mL)
41 | Cc1ccc2c(C)nc(Nc3nc(C)cc(-c4ccccc4)n3)nc2c1 | 96.8 | 57.9 (≈ 19.8 µg/mL) | 24.2 | > 100 | 18.6 (≈ 6.35 µg/mL)
42 | c1ccc(CNc2nc(Nc3ccccc3)nc3ccccc23)cc1 | 96.2 | 39.4 (≈ 12.9 µg/mL) | 21.2 | 4.16 | 7.46 (≈ 2.43 µg/mL)
43 | COc1ccc(Nc2nc(NCc3ccccc3)c3ccccc3n2)cc1 | 98 | 48.7 (≈ 17.4 µg/mL) | 53.9 | 2.59 | 7.33 (≈ 2.61 µg/mL)
44 | OC(CNCc1ccccc1)Cn1c2ccccc2c2ccccc21 (stereo not given) | 90.3 | > 100 | 14.3 | 5.69 | 20.1 (≈ 6.64 µg/mL)
45 | CCOc1ccc2nc(C)cc(Nc3ccc(Br)cc3)c2c1 | 95.7 | > 100 | 11.1 | 3.95 | 18.7 (≈ 6.68 µg/mL)
46 | Clc1ccc2c(N3CCCC3)ccnc2c1 | 68.8 | > 100 | 17.1 | 34.9 | > 100
47 | CCCCCn1c(=N)n(CC(O)COc2cccc(C)c2)c2ccccc21 (stereo not given) | 96.5 | > 100 | 8.77 | 4.92 | 23 (≈ 8.45 µg/mL)
48 | CCN(CC)CCCNc1nc(-c2ccc(Cl)cc2)nc2ccccc12 | 95.3 | > 100 | 17.1 | 2.72 | 24.7 (≈ 9.11 µg/mL)
49 | Cc1ccc(Nc2nc(NCCO)c3ccccc3n2)cc1C | 97.2 | 82.6 (≈ 25.5 µg/mL) | 7.14 | 5.5 | 9.52 (≈ 2.94 µg/mL)
